US4423053A, “Derivatives of 2-amino-5-(o-sulphamidophenyl)-1,3,4-thiadiazol as antiviral agents and a process for the preparation thereof” (Societa Italo-Britannica L. Manetti-H. Roberts & Co., priority 1981, dated 1983)
Read-outs that look alike come from different tables or passages of the source.

Legend:
[1] = test system: Herpes simplex virus type 2; experiment: Antiviral activity in vitro on HSV2 at different doses (Table A); type: cell-based
Procedure: (§1) The tests were carried out inoculating virus of various kinds on living cells from different sources, forming the respective culture in tissue culture flasks, according to the method well known to those skilled in the art. The virus forms a plurality growing seats on the bottom of the tissue culture flasks, depending on the virus concentration and the test conditions, said seats being easily identifiable with the naked eye. In such a way it is possible to establish the controls. At the same time in the tissue culture flasks wherein the compound of the invention had been introduced, at various concentrations, an inhibition is observed, as shown by a number of growing seats lower than that of the controls. Said inhibition was calculated in percent as referred in the following tables. Tests have been effected by using virus Herpes simplex, type 2 (HSV2), and virus Coxackie B, type 4 (COXB4).

[2] = test system: virus Coxackie B, type 4 (COXB4); experiment: Antiviral activity in vitro on Coxackie B type 4 at different doses (Table B); type: cell-based
Procedure: as §1

[3] = test system: Herpes simplex virus type 2; experiment: Activity in vitro on HSV2 for different times of administration after infection (Table C); type: cell-based
Procedure: as §1, with “In order to ascertain the activity of compound G-413 "in vitro" at a dose of 10 μg on Herpes simplex” for “Tests have been effected by using”, “virus” for “virus Herpes simplex,”, “for different times of administration, a test was effected introducing the compound into the cells after the” for “(HSV2), and”, “infection.” for “Coxackie B, type 4 (COXB4).”

[4] = test system: Polio 1; type: cell-based
[5] = test system: ECHO 2; experiment: Inhibition of virion production, ECHO 2 on HEp-2 cells (Table E); type: cell-based; settings: ECHO 2 10^-6; 10^-7; 10^-8, HEp-2
Procedure: (§2) The activity of the compound G-413 was assessed by the test of inhibition of virion production.
(§3) The test was effected with various types of virus, on HEp-2 cells.

[6] = test system: Coxsackie B4; experiment: Inhibition of virion production, Coxsackie B4 on HEp-2 cells (Table F); type: cell-based
Procedure: as §2, §3

[7] = test system: HSV2; experiment: Inhibition of virion production, HSV2 on HEp-2 cells (Table G); type: cell-based, Herpes simplex virus type 2
[8] = test system: Adeno 17; experiment: Inhibition of virion production, Adeno 17 on HEp-2 cells (Table H); type: cell-based
Procedure: as §2, §3

[9] = test system: HSV2; experiment: Activity on kidney primary cells of rabbit with respect to HSV2 (Table I)
[10] = test system: HSV2; experiment: Activity on kidney secondary cells of rabbit YRK with respect to HSV2 (Table J)
[11] = Table D, Polio 1 10^-6, HEp-2, 20 μg per "Falcon"
[12] = Table D, Polio 1 10^-7, HEp-2, 20 μg per "Falcon"
[13] = Table D, Polio 1 10^-8, HEp-2, 20 μg per "Falcon"

## Nc1nnc(-c2ccccc2S(N)(=O)=O)s1 [G-413]
[1]; HSV2 10^-3, 2,5 μg
  inhibition: 66,7%
  virus growth (HSV2 with G-413): 3,5 PFU/ml
[1]; HSV2 10^-3, 5,0 μg
  inhibition: 66,7%
  virus growth (HSV2 with G-413): 3,5 PFU/ml
[1]; HSV2 10^-3, 10,0 μg
  inhibition: 81,0%
  virus growth (HSV2 with G-413): 2,0 PFU/ml
[1]; HSV2 10^-3, 20,0 μg
  inhibition: 71,5%
  virus growth (HSV2 with G-413): 3,0 PFU/ml
[1]; HSV2 10^-3, 30,0 μg
  inhibition: 52,4%
  virus growth (HSV2 with G-413): 5,0 PFU/ml
[1]; HSV2 10^-3, 40,0 μg
  inhibition: 52,4%
  virus growth (HSV2 with G-413): 5,0 PFU/ml
[1]; HSV2, dose of 10 μg
  percent inhibition (in words): very high percent inhibition
[2]; COXB4 10^-6, 2,5 μg
  inhibition: 28,8%
  virus growth (COXB4 with G-413): 23,5 PFU/ml
[2]; COXB4 10^-6, 5,0 μg
  inhibition: 89,9%
  virus growth (COXB4 with G-413): 3,0 PFU/ml
[2]; COXB4 10^-6, 10,0 μg
  inhibition: 81,9%
  virus growth (COXB4 with G-413): 6,5 PFU/ml
[2]; COXB4 10^-6, 20,0 μg
  inhibition: 80,4%
  virus growth (COXB4 with G-413): 6,5 PFU/ml
[2]; COXB4, dose of 5 μg
  percent inhibition (in words): very high percent inhibition
[3]; HSV2 10^-2 + 10 μg, no delay
  inhibition: 62,5%
  virus growth (HSV2 with G-413): 7,5 PFU/ml
[3]; HSV2 10^-2, 1 h later + 10 μg
  inhibition: 45,0%
  virus growth (HSV2 with G-413): 11,0 PFU/ml
[3]; HSV2 10^-2, 2 h later + 10 μg
  inhibition: 60,0%
  virus growth (HSV2 with G-413): 8,0 PFU/ml
[3]; HSV2 10^-2, 4 h later + 10 μg
  inhibition: 77,0%
  virus growth (HSV2 with G-413): 4,5 PFU/ml
[3]; HSV2 10^-2, 8 h later + 10 μg
  inhibition: 85,0%
  virus growth (HSV2 with G-413): 3,0 PFU/ml
[3]; HSV2 10^-2, 20 h later + 10 μg
  inhibition: 42,5%
  virus growth (HSV2 with G-413): 11,5 PFU/ml
[4]; [11]
  inhibition of virion production: 91,9%
  virion production: 29 PFU
[4]; [12]
  inhibition of virion production: 98,2%
  virion production: 5 PFU
[4]; [13]
  inhibition of virion production: 97,7%
  virion production: 4 PFU
[5]
  inhibition of virion production: 100%
[6]; COX B4 10^-4, HEp-2
  inhibition of virion production: 72,0%
  virion production: 14 PFU
[6]; COX B4 10^-5, HEp-2
  inhibition of virion production: 83,7%
  virion production: 7 PFU
[6]; COX B4 10^-6, HEp-2
  inhibition of virion production: 85,0%
  virion production: 6 PFU
[7]; HSV2 10^-1, HEp-2
  inhibition of virion production: 75,2%
  virion production: 8 PFU
[7]; HSV2 10^-2, HEp-2
  inhibition of virion production: 75,0%
  virion production: 5 PFU
[7]; HSV2 10^-3, HEp-2
  inhibition of virion production: 62,5%
  virion production: 3 PFU
[8]; Adeno 17 10^-4, HEp-2
  inhibition of virion production: 65,0%
  virion production: 35 PFU
[8]; Adeno 17 10^-5, HEp-2
  inhibition of virion production: 67,5%
  virion production: 27 PFU
[8]; Adeno 17 10^-6, HEp-2
  inhibition of virion production: 63,4%
  virion production: 22 PFU
[9]; HSV2 10^-1, 10 μg
  inhibition: 38,1%
  virion production: 13 PFU
[9]; HSV2 10^-1, 50 μg
  inhibition: 71,5%
  virion production: 6 PFU
[9]; HSV2 10^-2, 10 μg
  inhibition: 23,0%
  virion production: 7 PFU
[9]; HSV2 10^-2, 50 μg
  inhibition: 77,0%
  virion production: 3 PFU
[9]; HSV2 10^-3, 10 μg
  inhibition: 50,0%
  virion production: 2 PFU
[9]; HSV2 10^-3, 50 μg
  inhibition: 75,0%
  virion production: 1 PFU
[10]; HSV2 10^-2, 5 μg
  inhibition: 10%
  virion production: 9 PFU
[10]; HSV2 10^-2, 10 μg
  inhibition: 30%
  virion production: 7 PFU
[10]; HSV2 10^-2, 25 μg
  inhibition: 40%
  virion production: 6 PFU
[10]; HSV2 10^-2, 50 μg
  inhibition: 70%
  virion production: 3 PFU
[10]; HSV2 10^-2, 100 μg
  inhibition: 70%
  virion production: 3 PFU

## CNc1nnc(-c2ccccc2S(N)(=O)=O)s1 [G-444]
[4]; Table K, Polio 1 10^-6, HEp-2
  inhibition of virion production: 64,8%
  virion production: 113 PFU
[4]; Table K, Polio 1 10^-7, HEp-2
  inhibition of virion production: 65,7%
  virion production: 87 PFU
[4]; Table K, Polio 1 10^-8, HEp-2
  inhibition of virion production: 26,6%
  virion production: 83 PFU

## C=CCNc1nnc(-c2ccccc2S(N)(=O)=O)s1 [G-445]
[4]; Table K, Polio 1 10^-6, HEp-2
  inhibition of virion production: 73,6%
  virion production: 85 PFU
[4]; Table K, Polio 1 10^-7, HEp-2
  inhibition of virion production: 73,2%
  virion production: 68 PFU
[4]; Table K, Polio 1 10^-8, HEp-2
  inhibition of virion production: 44,3%
  virion production: 63 PFU
